Results reported in patent publication US20130149740A1, “METHOD FOR THE PRODUCTION OF A POLYMERIZED PRODUCT” (Baxter Healthcare S.A., priority 2011, published 2013).

Experiments:
[1] = Viscosity and estimated capillary number of fibrin sealant components and mixes (squeezing regime); format: physicochemical; conditions: at 130 s^−1
Protocol: For these experiments, the experimental device and set-up was the same as described above. However, the liquid which is segmented by air is a mix. Raw products are fibrinogen (with methylene blue as coloring agent) and thrombin from TISSEEL kit which have to be mixed prior to segmentation. A Duploject system was applied which can be completed with a mixing device upstream the T-junction.
Under the “squeezing” regime of segmentation, the viscosities in the following table are calculated for different components, as well as the corresponding capillary numbers for mixes.

[2] = Doxorubicin living time (stability), concentration followed by fluorescence; format: physicochemical; conditions: in presence of fibrin
Source text: DX has some fluorescence properties which can easily be used to measure its concentration in a solution. Indeed, excited with a 470 nm light, it emits a 593 light which intensity depends on DX concentration.

Viscosity [1]	DX living time [2]	Compound
1.3 cP		[Ca+2].[Cl-].[Cl-] [CaCl2 (40 μmol/ml), CaCl2]
	higher than 14 days	COc1cccc2c1C(=O)c1c(O)c3c(c(O)c1C2=O)C[C@@](O)(C(=O)CO)C[C@@H]3O[C@H]1C[C@H](N)[C@H](O)[C@H](C)O1 [DX, Doxorubicin]
